This is an account of results in ChEMBL document CHEMBL5241054, “Effective anti-aromatase therapy to battle against estrogen-mediated breast cancer: Comparative SAR/QSAR assessment on steroidal aromatase inhibitors” (Eur J Med Chem, 2020).

In general, IC50 refers to the concentration that inhibits the measured activity by half. Read a low IC50 as greater potency in that assay.

One assay concerns the target T1, Aromatase (Homo sapiens, UniProt P11511).
T1 sequence (P11511 whole entry): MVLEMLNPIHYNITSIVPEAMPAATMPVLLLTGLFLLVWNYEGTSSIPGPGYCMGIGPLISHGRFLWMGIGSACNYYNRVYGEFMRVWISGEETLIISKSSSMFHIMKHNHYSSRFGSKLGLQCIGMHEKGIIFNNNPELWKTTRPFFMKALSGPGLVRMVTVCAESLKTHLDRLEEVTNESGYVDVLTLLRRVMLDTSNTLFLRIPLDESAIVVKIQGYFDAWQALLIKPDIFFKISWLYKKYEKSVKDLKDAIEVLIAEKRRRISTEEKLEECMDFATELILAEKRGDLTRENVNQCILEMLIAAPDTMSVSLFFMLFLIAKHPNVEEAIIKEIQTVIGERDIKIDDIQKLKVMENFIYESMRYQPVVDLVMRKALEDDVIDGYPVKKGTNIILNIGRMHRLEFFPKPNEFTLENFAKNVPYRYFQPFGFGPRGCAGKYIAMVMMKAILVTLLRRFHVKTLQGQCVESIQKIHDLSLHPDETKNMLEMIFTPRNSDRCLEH
With `CO[C@@H]1C[C@@]2(C)C(=CC1=O)CC[C@@H]1[C@@H]2CC[C@]2(C)C(=O)CC[C@@H]12`, half-maximal inhibition (IC50) was put at 11.8 µM. With `C[C@]12C=CC(=O)C=C1C[C@@H](CCc1ccc([N+](=O)[O-])cc1)[C@@H]1[C@@H]2CC[C@]2(C)C(=O)CC[C@@H]12`, the IC50 was 0.0149 µM. This IC50 is about 790-fold lower than that of the compound before. On the same count and under the same terms, with `CSC1=C2CC[C@@H]3[C@H](CC[C@]4(C)C(=O)CC[C@@H]34)[C@@]2(C)CCC1=O` the figure was 4.4 µM; with `C[C@]12C[C@@H](O)C(=O)C=C1CC[C@@H]1[C@@H]2CC[C@]2(C)C(=O)CC[C@@H]12`, 15.3 µM. `CCCCCC(=O)O[C@H]1C[C@@H]2[C@H](CC[C@]3(C)C(=O)CC[C@@H]23)[C@@]2(C)CCC(=O)C=C12`: the IC50 was 0.0879 µM.

`C[C@]12C[C@@H](Br)C(=O)C=C1CC[C@@H]1[C@@H]2CC[C@]2(C)C(=O)CC[C@@H]12`: the IC50 is 2.2 µM. For the compound `C[C@]12C=CC(=O)C=C1C=C(CCc1ccccc1)[C@@H]1[C@@H]2CC[C@]2(C)C(=O)CC[C@@H]12`, 0.172 µM corresponded to half-maximal inhibition (IC50). This IC50 is about 13-fold lower than that of the compound before. Turning to `C[C@]12C=CC(=O)C=C1C[C@@H](CCc1ccc(N)cc1)[C@@H]1[C@@H]2CC[C@]2(C)C(=O)CC[C@@H]12`, the IC50 was 0.0187 µM.

`CCO[C@@H]1C[C@@]2(C)C(=CC1=O)CC[C@@H]1[C@@H]2CC[C@]2(C)C(=O)CC[C@@H]12`: inhibition was half-maximal at 11.8 µM (IC50). For the compound `C[C@]12C[C@@H](Cl)C(=O)C=C1CC[C@@H]1[C@@H]2CC[C@]2(C)C(=O)CC[C@@H]12`, the IC50 was 1.4 µM. `C[C@]12CCC(=O)C(O)=C1CC[C@@H]1C2=CC[C@]2(C)C(=O)CC[C@@H]12` gave an IC50 of 0.35 µM.

The compound `COCSC1=C2CC[C@@H]3[C@H](CC[C@]4(C)C(=O)CC[C@@H]34)[C@@]2(C)CCC1=O` had an IC50 of 10 µM.

`C[C@]12CCC(=O)C=C1[C@@H](Oc1ccccc1)C[C@@H]1[C@@H]2CC[C@]2(C)C(=O)CC[C@@H]12` gave an IC50 of 0.1 µM. Same read-out and setting: with `C[C@@H]1C[C@@]2(C=O)C(=CC1=O)CC[C@@H]1[C@@H]2CC[C@]2(C)C(=O)CC[C@@H]12` the figure was 12 µM; with `C[C@]12CCC(=O)C(SCCl)=C1CC[C@@H]1C2=CC[C@]2(C)C(=O)CC[C@@H]12`, 0.859 µM. Same read-out and setting: the figure for `CO[C@@H]1C[C@@H]2[C@H](CC[C@]3(C)C(=O)CC[C@@H]23)[C@@]2(C)CCC(=O)C=C12` is 0.17 µM. The compound `CCCCC(=O)O[C@H]1C[C@@H]2[C@H](CC[C@]3(C)C(=O)CC[C@@H]23)[C@@]2(C)CCC(=O)C=C12` gave an IC50 of 0.14 µM. Same read-out and setting: the figure for `CC1(C)C[C@@]2(C=O)C(=CC1=O)CC[C@@H]1[C@@H]2CC[C@]2(C)C(=O)CC[C@@H]12` is 0.6 µM. Same read-out and setting: the figure for `CCO[C@@H]1C[C@@H]2[C@H](CC[C@]3(C)C(=O)CC[C@@H]23)[C@@]2(C)CCC(=O)C=C12` is 0.5 µM; for `C[C@]12CCC(=O)C(S)=C1CC[C@@H]1C2=CC[C@]2(C)C(=O)CC[C@@H]12` it is 3.8 µM. `CCCCCCCC(=O)O[C@H]1C[C@@H]2[C@H](CC[C@]3(C)C(=O)CC[C@@H]23)[C@@]2(C)CCC(=O)C=C12` had an IC50 of 0.15 µM.

In turn, `CCCC(=O)O[C@H]1C[C@@H]2[C@H](CC[C@]3(C)C(=O)CC[C@@H]23)[C@@]2(C)CCC(=O)C=C12` showed an IC50 of 0.2 µM. The IC50 values of the last two compounds are within 1.5-fold of each other. On the same count and under the same terms, the figure for `COCOC1=C2CC[C@@H]3[C@H](CC[C@]4(C)C(=O)CC[C@@H]34)[C@@]2(C)CCC1=O` is 4.4 µM. `CC(=O)O[C@H]1C[C@@H]2[C@H](CC[C@]3(C)C(=O)CC[C@@H]23)[C@@]2(C)CCC(=O)C=C12`: the IC50 was 4 µM. The IC50 values of the last two compounds are within 1.5-fold of each other.

Compound `CCCCC(=O)O[C@@H]1C[C@@H]2[C@H](CC[C@]3(C)C(=O)CC[C@@H]23)[C@@]2(C)CCC(=O)C=C12` gave an IC50 of 1.5 µM. The same measure, in the same setting: with `CCCCCC(=O)O[C@@H]1C[C@@H]2[C@H](CC[C@]3(C)C(=O)CC[C@@H]23)[C@@]2(C)CCC(=O)C=C12` the figure was 0.53 µM. The same measure, in the same setting: the figure for `C[C@]12CCC(=O)C(S)=C1CC[C@@H]1[C@@H]2CC[C@]2(C)C(=O)CC[C@@H]12` is 3.5 µM; for `CCCCCCCC(=O)O[C@@H]1C[C@@H]2[C@H](CC[C@]3(C)C(=O)CC[C@@H]23)[C@@]2(C)CCC(=O)C=C12` it is 1.5 µM. Compound `CCC(=O)O[C@H]1C[C@@H]2[C@H](CC[C@]3(C)C(=O)CC[C@@H]23)[C@@]2(C)CCC(=O)C=C12` had an IC50 of 0.21 µM. Same read-out and setting: the figure for `CC1(C)C[C@@]2(CO)C(=CC1=O)CC[C@@H]1[C@@H]2CC[C@]2(C)C(=O)CC[C@@H]12` is 5.11 µM. On the same count and under the same terms, the figure for `CCCO[C@@H]1C[C@@H]2[C@H](CC[C@]3(C)C(=O)CC[C@@H]23)[C@@]2(C)CCC(=O)C=C12` is 0.55 µM; for `C[C@]12CCC(=O)C=C1[C@H](Oc1ccccc1)C[C@@H]1[C@@H]2CC[C@]2(C)C(=O)CC[C@@H]12` it is 23 µM; for `CC(=O)O[C@@H]1C[C@@H]2[C@H](CC[C@]3(C)C(=O)CC[C@@H]23)[C@@]2(C)CCC(=O)C=C12` it is 20 µM. In turn, `CSCSC1=C2CC[C@@H]3C(=CC[C@]4(C)C(=O)CC[C@@H]34)[C@@]2(C)CCC1=O` showed an IC50 of 1.2 µM. `CCCC(=O)O[C@@H]1C[C@@H]2[C@H](CC[C@]3(C)C(=O)CC[C@@H]23)[C@@]2(C)CCC(=O)C=C12`: inhibition was half-maximal at 2.7 µM (IC50).

`C[C@@H]1C[C@@]2(CO)C(=CC1=O)CC[C@@H]1[C@@H]2CC[C@]2(C)C(=O)CC[C@@H]12` showed an IC50 of 11 µM. `CCCCCCC(=O)O[C@@H]1C[C@@H]2[C@H](CC[C@]3(C)C(=O)CC[C@@H]23)[C@@]2(C)CCC(=O)C=C12` gave an IC50 of 1.5 µM. Same read-out and setting: the figure for `CCC(=O)O[C@@H]1C[C@@H]2[C@H](CC[C@]3(C)C(=O)CC[C@@H]23)[C@@]2(C)CCC(=O)C=C12` is 2.2 µM; for `CCCCCCC(=O)O[C@H]1C[C@@H]2[C@H](CC[C@]3(C)C(=O)CC[C@@H]23)[C@@]2(C)CCC(=O)C=C12` it is 0.0951 µM.

In a further assay the target is T1, Aromatase. The source holds these as a separate data set.
Consider `C[C@]12CCC(=O)C=C1CC[C@@H]1[C@@H]2CC[C@]2(C)C(=O)[C@H](O)C[C@@H]12`, for which the IC50 was 200 µM. For the compound `C[C@]12CCCCC1=CC(=O)[C@@H]1[C@@H]2CC[C@]2(C)C(=O)CC[C@@H]12`, it took 2.3 µM to reach half-maximal inhibition (IC50). `C[C@]12CC[C@H]3[C@@H](CCC4=CCCC[C@@]43C(F)F)[C@@H]1CCC2=O` had an IC50 of 1.2 µM.

For the compound `C[C@]12CCCC(=O)C1=CC[C@@H]1[C@@H]2CC[C@]2(C)C(=O)CC[C@@H]12`, the IC50 is 1.2 µM.

Turning to `C[C@]12CC[C@H]3[C@@H](CCC4=CC(=O)CC[C@@]43C)[C@@H]1C[C@@H](O)[C@@H]2O`, the IC50 is 899 µM. This IC50 lies about 750-fold higher than the previous one. As for `C[C@]12CC[C@H]3[C@@H](CCC4=CCCC[C@@]43C)[C@@H]1C[C@@H](O)[C@@H]2O`, the IC50 was 700 µM. The IC50 values of the last two compounds are within 1.5-fold of each other.

The compound `CC(=O)OC[C@]12CCCC=C1CC[C@@H]1[C@@H]2CC[C@]2(C)C(OC(C)=O)CC[C@@H]12` (some centres not stated) had an IC50 of 38 µM.

The compound `C[C@]12CC[C@H]3[C@@H](CCC4C(=O)[C@H](O)CC[C@@]43C)[C@@H]1CC[C@@H]2O` (some centres not stated) had an IC50 of 3.9 µM. Against the preceding compound, the IC50 is about 9.7-fold lower. Compound `C[C@]12CC[C@H]3[C@@H](CCC4=CCCC[C@@]43CO)[C@@H]1CCC2O` (some centres not stated) showed an IC50 of 2.3 µM. The same measure, in the same setting: with `C[C@]12CC[C@H]3[C@@H](CCC4=CC(=O)CC[C@@]43CO)[C@@H]1C[C@@H](O)[C@@H]2O` the figure was 2400 µM; with `C[C@]12CC[C@H]3[C@@H](CCC4=CCCC[C@@]43CO)[C@@H]1C[C@@H](O)[C@@H]2O`, 971 µM.

Consider `CC(=O)OC[C@]12CCCC=C1CC[C@@H]1[C@@H]2CC[C@]2(C)C(O)CC[C@@H]12` (some centres not stated), for which 44 µM corresponded to half-maximal inhibition (IC50). The same measure, in the same setting: with `C[C@]12CC[C@H]3[C@@H](CCC4=CC(=O)CC[C@@]43C=O)[C@@H]1CCC2=O` the figure was 1.2 µM; with `C[C@]12CCCC=C1CC[C@@H]1[C@@H]2CC[C@]2(C)C(=O)[C@H](O)C[C@@H]12`, 4 µM. On the same count and under the same terms, with `C[C@]12CC[C@H]3[C@@H](CCC4=CC(=O)CC[C@@]43CO)[C@@H]1C[C@@H](O)C2=O` the figure was 800 µM; with `C[C@]12CC[C@H]3[C@@H](CCC4=CCCC[C@@]43C=O)[C@@H]1C[C@@H](O)C2=O`, 28 µM. The same measure, in the same setting: with `CC(=O)OC1CC[C@H]2[C@@H]3CCC4=CCCC[C@]4(CO)[C@H]3CC[C@]12C` (some centres not stated) the figure was 100 µM. With `C#C[C@H](O)[C@]12CCCC=C1CC[C@@H]1[C@@H]2CC[C@]2(C)C(=O)CC[C@@H]12`, the IC50 is 61.9 µM. Compound `C[C@]12CC[C@H]3[C@@H](CCC4=CCCC[C@@]43CO)[C@@H]1C[C@@H](O)C2=O` showed an IC50 of 8.99 µM. The same measure, in the same setting: the figure for `COc1cc2c(cc1O)CC[C@@H]1[C@@H]2CC[C@]2(C)[C@@H](O)CC[C@@H]12` [2-METHOXYESTRADIOL] is 20 µM; for `C[C@]12CCC(=O)C=C1CC[C@@H]1[C@@H]2CC[C@]2(C)C(=O)CC[C@@H]12` [ANDROSTENEDIONE] it is 1 µM. The compound `C[C@]12CC[C@@H]3c4ccc(O)cc4CC[C@H]3[C@@H]1CCC2=O` [ESTRONE] had an IC50 of 26 µM. This IC50 lies about 26-fold higher than the previous one.

`C#CC[C@]12CCC(=O)C=C1CC[C@@H]1[C@@H]2CC[C@]2(C)C(=O)CC[C@@H]12` [PLOMESTANE] showed an IC50 of 1 µM.
